From BindingDB's records for doi:10.1021/acsmedchemlett.9b00381 (Dana-Farber Cancer Institute, 2019) come the findings set out here.

A short description of test [1]: Inhibition of EGFR (unknown origin) expressed in mouse Ba/F3 cells assessed as reduction in cell growth incubated for 72 hrs in presence of 1 ug/ml Cetuximab by celltiter-glo luminescent cell viability assay.
A short description of test [2]: Inhibition of EGFR L858R mutant (unknown origin) expressed in mouse Ba/F3 cells assessed as reduction in cell growth incubated for 72 hrs in presence of 1 ug/ml Cetuximab by celltiter-glo luminescent cell viability assay. In general terms: ATP-based viability assays read luminescence as a measure of living cells.
The nature of test [3]: Inhibition of EGFR double T790M/L858R mutant (unknown origin) expressed in mouse Ba/F3 cells assessed as reduction in cell growth incubated for 72 hrs in presence of 1 ug/ml Cetuximab by celltiter-glo luminescent cell viability assay.
A short description of test [4]: Inhibition of EGFR triple T790M/L858R/C797S mutant (unknown origin) expressed in mouse Ba/F3 cells assessed as reduction in cell growth incubated for 72 hrs in presence of 1 ug/ml Cetuximab by celltiter-glo luminescent cell viability assay.

On to `CN1CCN(c2ccc(Oc3ccc4c(c3)C(=O)N(Cc3ccccc3)c3cc(F)ccc3N4)cc2)CC1`, for which the IC50 (in general, the concentration that gives 50% inhibition) came to 3200 nM in test [1], 2700 nM in test [2], 360 nM in test [3] and 200 nM in test [4].

On to `O=C1c2cc(-c3ccc(N4CCNCC4)cc3)ccc2Nc2ccc(F)cc2N1Cc1ccccc1`, for which the half-maximal inhibitory concentration (IC50) in test [1] was found to be 4100 nM; in test [2] it was 3700 nM; in test [3], 770 nM; in test [4] it was 930 nM.
